# Experimental data published in patent US20260232767A1, “INTERLEUKIN-23 RECEPTOR ANTAGONIST PEPTIDES FOR USE IN THE TREATMENT OF PSORIASIS” (Janssen Pharmaceutica NV, priority 2023, published 2026).
# Test system: subjects with moderate-to-severe plaque psoriasis
# Test: PSSD symptom and sign scores, Example 2
# Format: in vivo, human
# From the text: Secondary endpoints included additional change from baseline of Example 1 in PASI, IGA, and PSSD at Week 52, including the proportions of subjects that achieved PAST 90, PAST 100, an IGA score of cleared (0) or minimal (1), PSSD symptoms score=0, and PSSD signs score=0.
smiles,measurement,setting,value
"CC(=O)NCCCC[C@@H]1NC(=O)[C@H](Cc2c[nH]c3c(C)cccc23)NC(=O)[C@H]([C@@H](C)O)NC(=O)[C@H](CC(N)=O)NC(=O)[C@@H](NC(C)=O)C(C)(C)SSC(C)(C)[C@@H](C(=O)N[C@@H](Cc2ccc(OCCN)cc2)C(=O)N[C@@H](Cc2ccc3ccccc3c2)C(=O)NC2(C(=O)N[C@@H](CCC(=O)O)C(=O)N[C@@H](CC(N)=O)C(=O)N[C@@H](Cc3cccnc3)C(=O)N(C)CC(N)=O)CCOCC2)NC1=O [IL-23 receptor antagonist peptide, Ac-[Pen]*-N-T-[W(7-Me)]-[Lys(Ac)]-[Pen]*-Phe[4-(2-aminoethoxy)]-[2-Nal]-[THP]-E-N-[3-Pal]-Sarc-NH2 (*[Pen]-[Pen]* formdisulfidebond)]",Subjects Achieving PSSD Sign Score 0 at Week 52,"50 mg QD, Subjects w/Baseline PSSD Sign Score ≥1 (Table 26, second block)",5 (11.6%)
same,Subjects achieving PSSD Sign Score = 0 at Week 52,"100 mg QD, subjects with Baseline PSSD Sign Score ≥1",6 (14.0%)
